Measurements published in patent publication US20260314594A1, “METHODS OF ENHANCING POLLEN VIABILITY OF PLANTS” (ACADEMIA SINICA, priority 2022, published 2026).

Assays:
Easter lily pollen = Easter lily pollen germination in vitro (germination rate in germination medium); assay type: cell-based, Easter lily (Lilium longiflorum Thunb. cv White Heaven)
Protocol: Pollen and stigma exudate (SE) were collected from more than ten thousand Easter lily (Lilium longiflorum Thunb. cv White Heaven) flowers. After dehydration at room temperature for 4 to 5 days, pollen grains were collected from dehydrated anthers. Pistils were harvested and used for SE collection. In general, 20~50 μL SE collected from a single ‘White Heaven’ pistil will be stored at −20° C. for further usage.
(§1) Lily pollen was cultured in a germination medium (GM) containing 12.7 mM CaCl2), 1.62 mM H3BO3, 9.9 mM KNO3, and 10% sucrose, pH5.2 at 28° C. for 2 hours with shaking at 50 rpm in the dark. Tobacco (Nicotiana tabacum) pollen was germinated in GM containing 1 mM CaCl2), 1 mM KCl, 1.6 mM H3BO3, 5% sucrose, 30 μM CuSO4, 15 mM MES, and 12.5% PEG4000, pH 5.9 at 25° C. for 2 hours with shaking at 50 rpm in the dark. Arabidopsis (Arabidopsis thaliana, Col-0) pollen was germinated in GM containing 5 mM CaCl2), 1 mM MgSO4·5 mM KCl·0.01% H3BO3, 10% Sucrose, pH 7.5 at 25° C. for 2 hours with shaking at 50 rpm in the dark. An Olympus BX51 microscope recorded germinating pollen. Pollen germination rate was calculated using the formula below: Pollen germination rate (%)=number of germinated pollen grains per field of view by the total number of pollen grains per field of view X100.
(§2) ImageJ measured pollen tube length and Western blot band intensity quantification. All P-values were calculated by One-way ANOVA (Analysis Of Variance) and Tukey's post hoc tests with SPSS
To validate the effect of HOPA on the stimulation of pollen germination, lily pollen grains were cultured in the GM containing 0, 10, 50, 100, and 200 ppm (part per million) of artificial HOPA for different time intervals.
SE has shown its effect on restoring the lost germination capability of pollen stored at low temperatures for a specific period (FIGS. 1A-1E). To validate whether the purified HOPA is the cause to rescue pollen germination capability, pollen grains stored for different time intervals (1 day, 2.5, or 5 months) were subjected to germination assays with or without 100 ppm artificial HOPA present in the GM.
High temperature is an adverse factor for pollen viability (Rang et al., 2011). We further investigated the effect of HOPA on the restoration of pollen viability after heat damage. Freshly collected lily pollen were pre-heat treatments at 28, 37, and 42° C. for 4 hours, followed by subjecting for germination in the GM with or without HOPA at 28° C. for 2 hours.
Low temperature is another adverse factor for pollen germination and growth. […] For the control, about 8% of pollen was germinated after 3-hour culture, but HOPA rescued the pollen germination up to about 29% germination rate (FIGS. 6E-6F).

Nicotiana tabacum pollen = assay: Tobacco pollen germination in vitro; assay type: cell-based; details: HOPA at 25° C. for 2 hours; FIG. 8A: 50-1600 ppm, 1.5 hours
Protocol: as §1, with “Tobacco (Nicotiana tabacum) pollen was germinated in GM containing 1 mM CaCl2), 1 mM KCl, 1.6 mM H3BO3, 5% sucrose, 30 μM CuSO4, 15 mM MES, and 12.5% PEG4000, pH 5.9 at 25° C. for 2 hours with shaking at 50 rpm in the dark.” left out
as §2
(§3) To investigate the possibility that HOPA can stimulate diverse-species pollen germination, we examined Nicotiana tabacum and Arabidopsis thaliana (Col-0) pollen in GM with or without HOPA at 25° C. for 2 hours. […] Those results reveal the promising universal function of HOPA in stimulating pollen germination.

[1] = system: Arabidopsis thaliana (Col-0) pollen; assay: Arabidopsis pollen germination in vitro; assay type: cell-based; details: HOPA at 25° C. for 2 hours; FIG. 8B: 200 ppm, 2.5 hours
Protocol: as §1, with “Arabidopsis (Arabidopsis thaliana, Col-0) pollen was germinated in GM containing 5 mM CaCl2), 1 mM MgSO4·5 mM KCl·0.01% H3BO3, 10% Sucrose, pH 7.5 at 25° C. for 2 hours with shaking at 50 rpm in the dark.” left out
as §2, §3

lily pollen tube = assay: Lily pollen tube elongation; assay type: cell-based, Easter lily (Lilium longiflorum Thunb. cv White Heaven); details: 100 ppm HOPA
Protocol: as §1, §2
We germinated lily pollen in GM with or without 100 ppm HOPA at 28° C. for different time intervals to obtain their growth rates.

SMILES: CC(C)(CO)C(O)C(=O)NCCCC(=O)O (centres unmarked) [HOPA, hopantenic acid]
- pollen germination rate, HOPA dose response (Easter lily pollen; 0, 10, 50, 100 and 200 ppm HOPA in GM, 28° C., FIG. 5: 2 hours, pollen stored at 4° C. one week): linear-gradient increase in a HOPA dosage-dependent manner
- pollen germination, significance of stimulation (Easter lily pollen; 10-200 ppm HOPA, 28° C., 2 hours, pollen stored at 4° C. one week (FIGS. 5A-5G)): significantly stimulates Easter lily pollen germination
- pollen germination rate at low temperature (Easter lily pollen; 18° C., 3-hour culture, 100 ppm HOPA, control about 8% (FIGS. 6E-6F)): about 29%
- pollen germination at low temperature, in words (Easter lily pollen; 18° C., 3-hour growth, 100 ppm HOPA (FIGS. 6E-6F)): partially rescued pollen germination rate at low-temperature conditions
- pollen germination rates of HOPA compared with 1/10 SE (Easter lily pollen; 100-200 ppm HOPA (FIG. 5G) vs 1/10 SE (about 785 ppm HOPA)): comparable effects in pollen germination rates
- pollen germination of long-time stored pollen (Easter lily pollen; pollen stored at 4° C. for 1 day, 2.5 or 5 months, 100 ppm HOPA, 28° C., 2 hours (FIGS. 6A-6B)): validly stimulates pollen germination in all stored pollen grains, especially for 5-month stored pollen germination
- pollen germination after heat damage (Easter lily pollen; pre-heat treatment at 28, 37 and 42° C. for 4 hours, then 100 ppm HOPA at 28° C. for 2 hours (FIGS. 6C-6D)): compromised the heat stress causing a decrease in pollen germination
- Nicotiana tabacum pollen germination (Nicotiana tabacum pollen): significantly stimulated
- Arabidopsis thaliana pollen germination [1]: significantly stimulated
- pollen tube elongation rate, in words (lily pollen tube; 28° C. (FIG. 7), compared to GM only): accelerated the pollen tube elongation rate
- pollen tube elongation rate (slope) (lily pollen tube; 28° C., different time intervals, control slope 0.0066 (FIG. 7)): 0.0109
